Here are results for ten compounds from ChEMBL document CHEMBL1150520, “Analogs of UK 14,304: Structural features responsible for 2 adrenoceptor activity” (Bioorg Med Chem Lett, 1995).

Assay [1] deals with T1, Adrenergic receptor alpha-1 (Homo sapiens, UniProt P35348+P25100+P35368).
T1 sequence (P35348 whole entry): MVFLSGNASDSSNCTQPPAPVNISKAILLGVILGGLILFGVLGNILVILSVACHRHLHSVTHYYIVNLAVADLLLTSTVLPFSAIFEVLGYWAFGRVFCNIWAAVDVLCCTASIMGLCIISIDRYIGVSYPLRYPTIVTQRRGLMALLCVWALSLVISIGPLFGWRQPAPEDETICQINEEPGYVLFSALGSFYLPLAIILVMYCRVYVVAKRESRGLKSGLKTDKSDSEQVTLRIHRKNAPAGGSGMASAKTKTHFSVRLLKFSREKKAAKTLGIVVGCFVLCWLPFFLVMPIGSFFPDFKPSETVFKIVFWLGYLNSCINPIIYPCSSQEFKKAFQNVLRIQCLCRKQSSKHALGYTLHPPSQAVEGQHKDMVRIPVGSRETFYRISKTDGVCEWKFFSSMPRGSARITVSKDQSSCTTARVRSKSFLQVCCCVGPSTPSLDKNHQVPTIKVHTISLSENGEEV
T1 sequence (P25100 whole entry): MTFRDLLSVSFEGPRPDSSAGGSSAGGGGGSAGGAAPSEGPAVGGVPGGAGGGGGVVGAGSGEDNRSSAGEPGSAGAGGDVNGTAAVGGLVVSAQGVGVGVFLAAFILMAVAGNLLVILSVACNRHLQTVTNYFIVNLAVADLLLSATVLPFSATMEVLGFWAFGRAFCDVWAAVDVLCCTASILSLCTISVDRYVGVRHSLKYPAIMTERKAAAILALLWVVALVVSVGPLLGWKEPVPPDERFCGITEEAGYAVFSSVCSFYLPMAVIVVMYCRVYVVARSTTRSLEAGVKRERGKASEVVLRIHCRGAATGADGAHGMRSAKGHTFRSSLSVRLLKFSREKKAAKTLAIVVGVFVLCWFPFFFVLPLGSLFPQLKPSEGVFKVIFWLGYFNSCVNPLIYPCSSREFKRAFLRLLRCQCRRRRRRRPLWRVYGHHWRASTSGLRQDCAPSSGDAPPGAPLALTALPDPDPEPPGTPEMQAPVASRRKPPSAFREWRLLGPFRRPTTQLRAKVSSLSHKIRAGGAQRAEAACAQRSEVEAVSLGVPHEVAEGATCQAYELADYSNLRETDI
T1 sequence (P35368 whole entry): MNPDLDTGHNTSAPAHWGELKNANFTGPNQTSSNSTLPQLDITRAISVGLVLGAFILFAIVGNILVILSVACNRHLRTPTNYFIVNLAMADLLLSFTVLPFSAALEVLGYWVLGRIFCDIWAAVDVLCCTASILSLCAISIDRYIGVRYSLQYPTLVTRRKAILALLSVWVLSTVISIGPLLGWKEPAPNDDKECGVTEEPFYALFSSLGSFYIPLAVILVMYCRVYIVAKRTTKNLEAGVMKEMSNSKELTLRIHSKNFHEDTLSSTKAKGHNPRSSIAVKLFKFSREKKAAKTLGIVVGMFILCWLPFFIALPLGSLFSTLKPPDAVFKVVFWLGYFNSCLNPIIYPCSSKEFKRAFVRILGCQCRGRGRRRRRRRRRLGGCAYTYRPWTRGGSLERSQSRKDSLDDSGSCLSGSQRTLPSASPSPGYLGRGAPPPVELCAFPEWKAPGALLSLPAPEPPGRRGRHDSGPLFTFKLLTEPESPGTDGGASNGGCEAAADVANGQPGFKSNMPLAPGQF
As to the kind of experiment: Binding affinity for Alpha-1 adrenergic receptor of human cerebral cortex membrane. It is filed as tissue-based.

The target in assay [2] is T2, Adrenergic receptor alpha-2 (Homo sapiens, UniProt P08913+P18825+P18089).
T2 sequence (P08913 whole entry): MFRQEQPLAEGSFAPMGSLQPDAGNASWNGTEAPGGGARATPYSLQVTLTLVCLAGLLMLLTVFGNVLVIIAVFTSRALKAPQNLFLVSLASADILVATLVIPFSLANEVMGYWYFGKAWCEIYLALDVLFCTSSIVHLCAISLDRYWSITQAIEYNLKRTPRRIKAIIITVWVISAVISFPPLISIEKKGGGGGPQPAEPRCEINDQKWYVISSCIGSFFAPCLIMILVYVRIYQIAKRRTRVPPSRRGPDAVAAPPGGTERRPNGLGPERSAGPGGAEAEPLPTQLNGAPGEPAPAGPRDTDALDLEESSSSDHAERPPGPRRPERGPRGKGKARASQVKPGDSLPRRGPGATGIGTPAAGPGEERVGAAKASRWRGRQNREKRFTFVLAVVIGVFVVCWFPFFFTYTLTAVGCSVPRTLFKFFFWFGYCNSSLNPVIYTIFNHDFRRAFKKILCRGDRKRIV
T2 sequence (P18825 whole entry): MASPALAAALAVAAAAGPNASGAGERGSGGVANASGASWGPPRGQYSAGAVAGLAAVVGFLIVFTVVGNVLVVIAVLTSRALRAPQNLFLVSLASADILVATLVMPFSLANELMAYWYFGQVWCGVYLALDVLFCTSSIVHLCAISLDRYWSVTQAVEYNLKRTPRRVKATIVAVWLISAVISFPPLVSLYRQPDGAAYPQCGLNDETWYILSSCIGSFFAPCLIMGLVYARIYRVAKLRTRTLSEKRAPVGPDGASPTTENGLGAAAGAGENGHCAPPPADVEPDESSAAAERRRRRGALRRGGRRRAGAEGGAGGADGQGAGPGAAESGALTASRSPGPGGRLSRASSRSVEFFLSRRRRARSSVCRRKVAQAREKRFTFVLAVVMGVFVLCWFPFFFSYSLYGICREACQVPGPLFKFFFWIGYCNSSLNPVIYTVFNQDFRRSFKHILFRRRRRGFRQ
T2 sequence (P18089 whole entry): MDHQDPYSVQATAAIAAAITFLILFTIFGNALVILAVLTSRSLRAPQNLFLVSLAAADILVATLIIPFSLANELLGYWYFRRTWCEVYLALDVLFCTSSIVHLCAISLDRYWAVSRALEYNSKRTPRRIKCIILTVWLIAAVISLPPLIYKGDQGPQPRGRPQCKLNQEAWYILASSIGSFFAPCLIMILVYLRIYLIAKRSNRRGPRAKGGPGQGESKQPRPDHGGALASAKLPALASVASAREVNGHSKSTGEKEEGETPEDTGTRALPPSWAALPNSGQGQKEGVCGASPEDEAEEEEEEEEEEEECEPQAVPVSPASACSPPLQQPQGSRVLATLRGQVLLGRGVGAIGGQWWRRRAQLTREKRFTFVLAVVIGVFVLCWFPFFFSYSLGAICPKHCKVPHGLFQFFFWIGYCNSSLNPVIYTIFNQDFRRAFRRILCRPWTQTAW
As to the kind of experiment: Binding affinity for Alpha-2 adrenergic receptor of CHO-C10 membrane preparation. Set-up: species or system Cricetulus griseus.

A word on the Ki: it is a dissociation constant, usually derived from enzyme kinetics or from competition with a known ligand. A low value points to a stronger hold on the target. Turning to `c1cc2c(cc1NC1=NCCN1)OCCO2`, the inhibition constant Ki in assay [1] was determined as 2400 nM.

Regarding `N=C(N)Nc1ccc2nccnc2c1Br`, the Ki turned out to be 41 nM in assay [2] and 17000 nM in assay [1].

In assay [2], `Cc1c(NC2=NCCN2)ccc2c1NCCO2` gave a Ki of 1.2 nM. This lies in the single-digit nanomolar range.

In the case of `COc1ccc(NC2=NCCN2)c(C)c1OC`, the Ki stood at 5.2 nM in assay [2] and 1500 nM in assay [1].

Regarding `Cc1c(NC2=NCCN2)ccc2c1NCCN2`, the Ki in assay [2] was determined as 9.6 nM; in assay [1], 8900 nM.

Consider `CN(C1=NCCN1)c1ccc2c(c1)OCCO2`, for which the Ki in assay [2] worked out at 180 nM; in assay [1] it was 30000 nM.

In assay [2], `c1cnc2cc(NC3=NCCN3)ccc2n1` yielded a Ki of 41 nM.

For `C/N=C(\NC)Nc1ccc2nccnc2c1Br`, the Ki is reported as 5300 nM in assay [2] and 10000 nM in assay [1].

Consider `Cc1c(NC2=NCCN2)ccc2c1OCCO2`, for which the Ki was 0.25 nM in assay [2] and 130 nM in assay [1].

For the compound `Cc1ccccc1N=C1NCCN1`, the Ki worked out at 7.8 nM in assay [2] and 2500 nM in assay [1].
